Data from patent US9549884B2, “Retinoid derivatives and process for their preparation” (SELEGO AB, priority 2013, dated 2017).
Converted amounts (≈) assume the structure as drawn.

Key:
[1] = Storage stability study checked by HPLC; type: physicochemical; details: 0-4° C., 40-90% humidity
Method: A comparison in stability between Compound (Ia) and the substance retin-15-yl ester retinoic acid (CAS No. 15498-86-9) was outlined by performing HPCL analysis of the two compounds throughout an extended storage period.
The stability study was performed at 0-4° C. and 40-90% humidity. The samples of each product, packed in polyethylene bag inside a closed polyethylene box, were maintained under the above mentioned condition for the given time (see below). The stability of the product was checked by HPLC analysis using the method reported here below: A Young Lin YL9100 HPLC System was equipped with a variable volume automatic injector and a YL-Clarity data system. A Capcellpack UG 120 C-18, 150×4.6 mm, 5 μm, column from Agilent Technologies was used with a column temperature of 25±2° C., a flow rate of 1.5 ml/min, an injection volume of 10 μl, a wavelength of 326 nm. The mobile phase was A: water containing 0.1% acetic acid; B: acetonitrile containing 0.1% acetic acid; C: methanol containing 0.1% acetic acid; and D: isopropanol. For a run time of 40 min the gradient was: […]
The Working Solution: dissolve the sample under stability study in acetonitrile in a concentration of 1 mg/ml and inject as it.
With reference to FIG. 1 and FIG. 2, the HPLC peaks with the highest area percentage (retention time 26.1 for Compound (1a) and 12.2 for retin-15-yl ester retinoic acid).

[2] = In vitro skin corrosion membrane barrier test (CORROSITEX Assay)
Method: The skin corrosive potential of compound (1a) was analyzed. Corrosive chemicals are dependent on their grade of corrosivity able to break through the bio-barrier membrane employed in the “in vitro Membrane barrier test (CORROSITEX® Assay)” (see EVCAM (2000) ESAC statement on the application of the Corrositex® assay for skin corrosivity testing. The test system is composed of a synthetic bio-barrier that is placed on a chemical detection system (CDS). The time necessary to activate the CDS allows to distinguish between Corrosive© and non-corrosive (NC) test substances. Hereby the test item was placed atop the bio-barrier membranes. The CDS activation was assessed as a color change or a change in consistency. […] Compound (1a) accordingly was classified as non-corrosive.

[3] = Highest soluble concentration in DMSO; type: physicochemical; details: organic solvent or mixture
[4] = system: reconstituted three-dimensional human epidermis model (EPISKIN-SM); assay: In vitro skin irritation test, EPISKIN-Standard Model, MTT; type: cell-based
Method: The skin irritant potential of compound (1a) was analyzed with a reconstituted three-dimensional human epidermis model, the EPISKIN-Standard Model® (EPISKIN-SM®) as a replacement for the Draize Skin Irritation Test (OECD TG 404) to distinguish between UN GHS “Category 2” skin irritating test substances and not categorized test substances (“No Category”) which may be considered as non-irritant. Hereby, the test item was applied topically. Cytotoxicity is expressed as reduction of mitochondrial dehydrogenase activity measured by formazan production from MTT after a 15 min exposure and 42 h post incubation period and compared to those of the concurrent negative controls.
The relative mean tissue viability after 15 min of exposure and 42 h post incubation was >50%. The test item, compound (1a) is therefore classified as “non-irritant” in accordance with UN GHS “No Category”.

BALB/c 3T3 cells = assay: In vitro phototoxicity test, neutral red uptake with and without UVA; type: cell-based
Method: In the present study the phototoxicity effects of compound (1a) were analyzed by dissolving the test item in DMSO and diluting to 1.100 ratio with Earle's balanced test solution. BALB/C 3T3 cells were treated for 1 h with different concentrations of the test solution at 37±1±° C. and further 50 min in absence and in presence of a non-toxic dose of UVA light, respectively. One day after treatment cytotoxicity was analyzed as a measure of reduction of neutral red uptake and compared to the controls. […] However, since the calculated mean photo effect (MPE) is <0.1 (0.027 in a rangefinder experiment; 0.056 in the main experiment) the test item is classified as non-toxic.

stability (HPLC) ([1]; after about two months)	solubility [3] [µg/mL]	decrease of purity with respect to the starting time (HPLC) ([1]; in one month) [%]	SMILES	skin corrosivity classification [2]	mean time required to activate the CDS ([2]; Corrositex bio-barrier membrane) [min]	relative mean tissue viability ([4]; 15 min exposure, 42 h post incubation) [%]	skin irritation classification (UN GHS) ([4]; UN GHS No Category)	phototoxicity classification (BALB/c 3T3 cells; MPE <0.1)	cytotoxic effect with UVA radiation (BALB/c 3T3 cells; in case of UVA radiation)	mean photo effect (MPE) (BALB/c 3T3 cells; main experiment)	mean photo effect (MPE) (BALB/c 3T3 cells; rangefinder experiment)
practically stable	2000 (≈ 4.46 mM)		CC1=C(/C=C/C(C)=C/C=C/C(C)=C/C(=O)OCCNC(=O)c2cccnc2)C(C)(C)CCC1 [Compound (1a), 2-(nicotinamido)-ethyl retinoate]	non-corrosive	> 60	> 50	non-irritant	non-toxic	slight cytotoxic effect	0.056	0.027
		5	CC1=C(/C=C/C(C)=C/C=C/C(C)=C/COC(=O)/C=C(C)/C=C/C=C(C)/C=C/C2=C(C)CCCC2(C)C)C(C)(C)CCC1 [retin-15-yl ester retinoic acid, reference compound]								
